Assays:
[1] = test system: Plasmodium yoelii; format: in vivo; details: P. yoelii, CF1 mice, oral gavage in PEG-400, 5 mg/kg × 4 days
[2] = ref 34 (2), ref 35 (6); cited from earlier work
[3] = cited from earlier work

Structure (SMILES)	in vivo %parasitemia reduction on day 5 at 5 mg/kg/4d [1]	antimicrobial activity [2]	cytotoxicity activity [3]
COC1=CC2=N/C1=C\NCC/C=C/CCCCCCCCc1ccc2[nH]1.Cl [(E/Z)-7, geometric isomers of Tambjamine MYP1]	ineffective		
CCCCc1cc(/C=C2\N=C(c3ccc(Cc4ccc(O)cc4)[nH]3)C=C2OC)[nH]c1C.Cl [Compound 3, 4-((5’-((4-Butyl-5-methyl-1H-pyrrol-2-yl)methylene)-4’-methoxy-1H,5’H-[2,2’-bipyrrol]-5-yl)methyl)phenol]	did not show efficacy		
CCCCCc1cc(/C=C2\N=C(c3ccc(Cc4ccc(O)cc4)[nH]3)C=C2OC)[nH]c1C.Cl [Compound 2, 4-((4’-Methoxy-5’-((5-methyl-4-pentyl-1H-pyrrol-2-yl)methylene)-1H,5’H-[2,2’-bipyrrol]-5-yl)methyl)phenol]	did not show efficacy	good	good
C=CCCCCCCCCc1ccc(C2=N/C(=C\NCCC=C)C(OC)=C2)[nH]1.Cl [Compound 39, N-((5-(dec-9-en-1-yl)-4’-methoxy-1H,5’H-[2,2’-bipyrrol]-5’-ylidene)methyl)but-3-en-1-amine]	ineffective		
COC1=CC(c2ccc[nH]2)=N/C1=C\c1cc(CCCCC(C)C)c(C)[nH]1.Cl [Compound 6, Isoheptylprodigiosin]		moderate	
